Results published in PMC6934184, “Selective DNA-PKcs inhibition extends the therapeutic index of localized radiotherapy and chemotherapy” (The Journal of Clinical Investigation, 2019).

Target: T1, RET V804L (Homo sapiens, UniProt P07949, V804L)
T1 construct: purchased Thermo Fisher Scientific (Life Technologies) SelectScreen
Assay: SelectScreen Z'LYTE
Type: biochemical
Summary of the method: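 Percent values come from Thermo SelectScreen profiling of NU5455, combining activity and binding assays. CSF1R was run in Z'LYTE format at Km app ATP, and CAMK1 in Adapta format with ATP listed at 10.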

T1 sequence (P07949 29-1114 V804L): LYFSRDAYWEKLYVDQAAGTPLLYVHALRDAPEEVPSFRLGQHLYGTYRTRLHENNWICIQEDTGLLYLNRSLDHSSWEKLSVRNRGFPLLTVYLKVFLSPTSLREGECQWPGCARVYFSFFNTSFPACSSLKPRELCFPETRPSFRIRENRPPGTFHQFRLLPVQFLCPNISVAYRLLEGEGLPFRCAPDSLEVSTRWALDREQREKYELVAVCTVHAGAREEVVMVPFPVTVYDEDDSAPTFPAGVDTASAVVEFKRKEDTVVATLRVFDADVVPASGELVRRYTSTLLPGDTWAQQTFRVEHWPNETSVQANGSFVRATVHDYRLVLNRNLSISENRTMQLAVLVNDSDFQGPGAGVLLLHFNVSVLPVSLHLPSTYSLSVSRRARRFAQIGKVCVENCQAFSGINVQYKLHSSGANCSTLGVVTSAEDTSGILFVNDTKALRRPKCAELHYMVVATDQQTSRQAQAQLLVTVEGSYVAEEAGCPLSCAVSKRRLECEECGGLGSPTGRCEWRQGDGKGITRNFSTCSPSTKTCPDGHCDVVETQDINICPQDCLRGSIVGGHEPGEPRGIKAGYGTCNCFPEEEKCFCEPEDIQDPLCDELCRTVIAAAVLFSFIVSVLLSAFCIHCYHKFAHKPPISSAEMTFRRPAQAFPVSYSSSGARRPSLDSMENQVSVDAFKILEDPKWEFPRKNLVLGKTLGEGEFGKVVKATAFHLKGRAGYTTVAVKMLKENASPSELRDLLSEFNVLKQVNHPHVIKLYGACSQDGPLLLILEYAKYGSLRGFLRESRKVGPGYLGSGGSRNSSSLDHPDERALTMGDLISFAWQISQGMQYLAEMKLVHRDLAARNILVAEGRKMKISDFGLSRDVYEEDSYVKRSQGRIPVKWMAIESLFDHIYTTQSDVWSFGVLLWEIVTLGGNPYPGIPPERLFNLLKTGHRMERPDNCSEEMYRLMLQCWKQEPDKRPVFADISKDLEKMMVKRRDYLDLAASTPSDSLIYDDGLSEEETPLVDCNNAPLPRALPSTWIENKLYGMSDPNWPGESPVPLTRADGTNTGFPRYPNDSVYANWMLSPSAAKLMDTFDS

## CN(C(=O)CN1CCOCC1)c1ccc2sc3c(-c4cccc5c(=O)cc(N6CC7CCC(C6)O7)oc45)cccc3c2c1 [NU5455]
  inhibition at 1 µM: -9.1%
